The source of these data is patent US20230416168A1 (EUROCHEM ANTWERPEN, priority 2020, published 2023).

The test system of one assay is Nitrosospira multiformis. The experiment in a line: Nitrification inhibition assay with Nitrosospira multiformis (nitrite level after 24 h). The class given is cell-based. The note with it: for pIC50 / activity at 100 µM: Nitrosospira multiformis; for pIC50: 8-point dose response, 2 to 100 μM, read-out: IC50; for activity at 100 µM: tested concentration 100 μM, 24 h, normalized to DMSO (100%) and 100 μM DMP (0%), read-out: Nitrification at tested concentration (0 = maximum activity). An outline of the steps: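 Dense N. multiformis cultures (5× concentrated in 181-medium) with ammonium were incubated 24 h at 30° C with shaking, then nitrite measured by Griess reagent at 540 nm. Relative nitrification normalised per plate to DMSO and 100 μM DMP controls; IC50 from logistic fit of 8-point doses 2-100 μM.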

In another assay the test system is Moorslede soil. Nature of the assay: In soil nitrification inhibition assay, Moorslede soil. To be noted: for inhibition at 50 µM / inhibition at 5 µM / inhibition at 20 µM: soil. The protocol:
Top layer (0 to 10 cm) soil samples were collected from different fields in Belgium (Merelbeke and Moorslede). Vegetation on the field trial was removed and samples were taken from different plots. All soil samples were mixed and sieved (mesh size 2.8 mm) to filter large debris and homogenize soil. The soil was stored at 5° C. in plastic containers covered with Saran foil to prevent changes in microbial community composition and to maintain the original soil water content.
Soil water content was determined by drying 20 g soil for 48 h in a 60° C. oven and measuring weight before and after drying. Based on the soil water content (±20%), compound solutions were prepared so that addition of 200 μl compound and 200 μl NH4Cl solution would result in a final compound concentration of 50 μM and a final NH4^+ concentration of 10 mM. Per treatment, 5 small pots were filled with 20 g soil. Next, the soil was treated first with the respective compound solution and then with the NH4Cl solution. Per tray, positive (50 μM DMP) and negative controls (DMSO) were included. Pots were incubated at 21° C. (6 a.m. to 10 p.m. light) for 7 days. Demineralized water was added to the soil every 2 to 3 days to a soil weight of 20 g. In the end, each sample of 20 g soil was dissolved in 100 ml 1M KCl and shaken for 1 hour, followed by filtration through Whatmann® paper. The filtrate was used to measure pH, NH4^+ and NO3− concentrations.
A set of examples was tested in the same conditions (Moorslede soil, 3 days of incubation) at a concentration of 50 μM.
Another set of examples was tested in different concentrations in Moorslede soil as well, and were sampled after 5 days.
The effect of 3H-1,3-thiazole-2-thione was tested in soil in accordance with the test described above in section 3.3.

[1] abbreviates: 72 h, 3 days, read-out: % Nitrification inhibition in soil (3 days of incubation, Moorslede soil) at 50 μM.
Setting [2] is: 120 h, 5 days, read-out: % Nitrification inhibition in soil (5 days of incubation, Moorslede soil) at indicated concentration.
[3] abbreviates: 120 h, 20 μM, 5 days, read-out: % Nitrification inhibition in soil (5 days of incubation, Moorslede soil) at indicated concentration.

pIC50: −log10 of the molar value. Like-named read-outs stand apart in the source and are kept apart here.

Broadly, the pIC50 is the negative decadic logarithm of the IC50, by convention in mol/L. Turning to `CN(Cc1c(Cl)nc2sccn12)CN1CCSC1=S` [Example 1, 3-[[(6-chloroimidazo[2,1-b][1,3]thiazol-5-yl)methyl-methylamino]methyl]-1,3-thiazolidine-2-thione], in the assay on Nitrosospira multiformis, the “nitrification inhibition, in words” value is listed as “strongly inhibited nitrification”; the pIC50 was more than 6.10; the activity at 100 µM was found to be 0%.

For `CN(Cc1nc2ccccc2s1)CN1CCOC1=S` [Example 5, 3-[[1,3-benzothiazol-2-ylmethyl(methyl)amino]methyl]-1,3-oxazolidine-2-thione], in the assay with Nitrosospira multiformis, the “nitrification inhibition, in words” value is recorded as “strong nitrification inhibition”; the pIC50 is more than 5.46; the activity at 100 µM was 0%.

For `S=C1NCCO1` [Example 7], in the assay on Nitrosospira multiformis, the pIC50 was more than 5.00 and the activity at 100 µM was determined as 0%. Besides, in the assay on Moorslede soil (setting [1]), the inhibition at 50 µM amounted to 100%. In the assay on Moorslede soil (setting [2]), the inhibition at 5 µM turned out to be 8% and the inhibition at 50 µM stood at 38%. For the same compound, the inhibition at 20 µM in the assay on Moorslede soil (setting [3]) is 32%.

For the compound `S=c1[nH]ccs1` [Example 24, 3H-1,3-thiazole-2-thione], the “nitrification inhibition, in words” value in the assay on Nitrosospira multiformis is reported as “very strong effect”. Further, the “Average nitrification [%] in Nitrosospira multiformis” value (“Average nitrification [%]” below) is reported as 25% with Nitrosospira multiformis (2 μM); 4% in the assay on Nitrosospira multiformis (3.5 μM); 0% with Nitrosospira multiformis (6 μM); 0% in the assay with Nitrosospira multiformis (11 μM); 0% with Nitrosospira multiformis (19 μM); 0% with Nitrosospira multiformis (33 μM). In addition, the “Average nitrification [%]” value with Nitrosospira multiformis (57 μM) and in the assay with Nitrosospira multiformis (100 μM) was 0% each time. Moreover, in the assay on Nitrosospira multiformis, the pIC50 was 5.89. Moreover, the activity at 100 µM in the assay on Nitrosospira multiformis amounted to 0%. Further, the “nitrification inhibition in soil, in words” value with Moorslede soil (20 μM, 5 days) is “effectively inhibits nitrification in soil”. For the same compound, the inhibition at 50 µM with Moorslede soil (setting [1]) turned out to be 40%. Moreover, the inhibition at 20 µM with Moorslede soil (120 h, 20 μM, 5 days, read-out: Average % nitrification inhibition in soil (5 days of incubation, Moorslede soil) at 20 μM) was found to be 14%.

Take `CSc1nccs1` [Example 25, 2-(methylsulfanyI)-1,3-thiazole]: the “Average nitrification [%]” value with Nitrosospira multiformis (2 μM) came to 81%; with Nitrosospira multiformis (3.5 μM), 80%; with Nitrosospira multiformis (6 μM), 80%; with Nitrosospira multiformis (11 μM), 76%; with Nitrosospira multiformis (19 μM) it was 74%; with Nitrosospira multiformis (33 μM), 67%. Moreover, the “Average nitrification [%]” value with Nitrosospira multiformis (57 μM) amounted to 62%; in the assay on Nitrosospira multiformis (100 μM), 53%. For the same compound, the negative-log IC50 (pIC50) in the assay on Nitrosospira multiformis is 3.85. Further, in the assay with Nitrosospira multiformis, the activity at 100 µM amounted to 53%. Besides, the inhibition at 50 µM with Moorslede soil (setting [1]) was 73%; in the assay on Moorslede soil (setting [2]), 30%. Besides, in the assay on Moorslede soil (setting [2]), the inhibition at 5 µM was determined as 3%. For the same compound, in the assay on Moorslede soil (setting [3]), the inhibition at 20 µM worked out at 14%.
